Measured values from US20070142450A1, “Novel urea derivatives and their medical use” (priority 2004, published 2007).

Columns and labels:
male Wistar rats = test: Morris Water Maze (MWM), scopolamine-induced impairment of spatial learning and memory; assay type: in vivo, rat
Source text: The Morris Water Maze (MWM) is the favored test in behavioral neuroscience for the study of hippocampal-dependent learning and memory (see Morris R G: Developments of a Water Maze procedure for studying spatial learning in the rat; J. Neurosci. Meth. 1984 11 47-60). It is a standardized behavioral task to test spatial navigation in rodents, and is a highly sensitive test to assess cognition in animals.
In the MWM performance animals have to remember the position of a submerged platform (10×10 cm) within a circular (Ø 150 cm) water tank using visual spatial cues. A number of eight (n=8) male Wistar rats were used for each group in each experiment. In four trials per day, for four consecutive acquisition days, they are released from different starting points close to the wall of the tank to find their way to the submerged platform. Spatial learning abilty is evaluated by latency to locate the platform.
This learning impairment was reversed by 30 mg/kg of Compound 1 of the invention (i.p. administration 30 minutes prior to test start).

| SMILES | melting point [°C] | other results |
| --- | --- | --- |
| Cc1cc(O)ccc1NC(=O)Nc1cc(C(F)(F)F)ccc1Cl | 210 to 211 |  |
| CN1[C@@H]2C[C@@H](OC(=O)[C@H](CO)c3ccccc3)C[C@H]1[C@@H]1O[C@@H]12 [Scopolamine, reference compound] |  | Effect on spatial reference memory as measured in MWM (latency to locate the platform) (male Wistar rats; s.c. administration 30 minutes prior to test start): significantly impairs |
| COc1ccc(Cl)cc1NC(=O)Nc1cc(C(F)(F)F)ccc1Cl | 172 to 176 |  |
| Nc1cc(Cl)c(Cl)cc1NC(=O)Nc1cc(C(F)(F)F)ccc1Cl | 207 to 209 |  |
| O=C(Nc1cccc(C(F)(F)F)c1)Nc1ccc(O)c(Cl)c1 | 194 to 196 |  |
| Cc1cc(O)ccc1NC(=O)Nc1cccc(C(F)(F)F)c1 | 185 to 186 |  |
| O=C(Nc1ccc(-c2ccccc2)cc1)Nc1cc(Cl)c(O)c(Cl)c1 | 249 to 251 |  |
| COc1ccc(Cl)cc1NC(=O)Nc1ccc([N+](=O)[O-])cc1O | 225 to 226 |  |
| O=C(Nc1ccc(-c2ccccc2)cc1)Nc1cc(Cl)ccc1O | 191 to 192 |  |
| Cc1cc(O)cc(NC(=O)Nc2cccc(C(F)(F)F)c2)c1 | 188 to 190 |  |
| O=C(Nc1cc(Cl)c(O)c(Cl)c1)Nc1cc(C(F)(F)F)ccc1Cl | 213 to 221 |  |
| O=C(Nc1cccc(-c2ccccc2)c1)Nc1cc(Cl)c(O)c(Cl)c1 | 252 to 253 |  |
| O=C(Nc1cccc(C(F)(F)F)c1)Nc1c(O)cccc1[N+](=O)[O-] | 174 to 175 |  |
| Cc1cc(O)cc(NC(=O)Nc2cc(C(F)(F)F)ccc2Cl)c1 | 190 to 192 |  |
| O=C(Nc1cc(Cl)ccc1O)Nc1cc(C(F)(F)F)ccc1Cl [Compound 1, N-(3-Chloro-6-hydroxy-phenyl)-N′-(2-chloro-5-trifluoromethyl-phenyl)urea] |  | Reversal of scopolamine-induced learning impairment (latency to locate the platform) (male Wistar rats; 30 mg/kg i.p. 30 minutes prior to test start, with 0.1 mg/kg Scopolamine s.c., four trials per day, four days): reversed |
| O=C(Nc1cccc(C(F)(F)F)c1)Nc1cc(Cl)c(O)c(Cl)c1 | 215 to 218 |  |
